Results published in patent US5786508A, “Substituted kynurenines and process for their preparation” (Pharmacia & Upjohn S.p.A., priority 1995, dated 1998).

Legend:
KYNA production = assay: Determination of inhibition of KYNA production by rat tissue slices (cerebral cortex); assay type: cell-based; settings: 50 μM L-KYN, 2 h at 37° C.
Method: B) Determination of inhibition of KYNA production by rat tissue slices
Routinely, slices (base 1×1 mm; weight 1.5 mg/slice) from the cerebral cortex were separated on ice and transferred to culture wells (10 slices/well) containing 1 ml of oxygenated Krebs-Ringer buffer (NaCl, 118.5 mM; KCl, 4.75 mM; CaCl2, 1.77 mM; MgSO4, 1.18 mM; NaH2 PO4, 12.9 mM; NaH2 PO4, 3 mM; glucose, 5 mM; pH 7.4). Subsequently, the tissue was preincubated for 10 min at 37° C. and incubated further for 2 h at 37° C., in the presence of 50 μM L-KYN in an oxygenated chamber, on a shaking water bath. Compounds of the present invention were included in the incubation mixture as needed. Following incubation, the culture wells were immediately placed on ice, and the slices were rapidly separated from the incubation medium. For KYNA determination, 1 ml samples of the incubation medium were immersed in a boiling water bath for 10 min, and the precipitated proteins were removed by centrifugation (8,730×g, 10 min). The supernatants were diluted (1:1, v/v) with 0.2M HCl and applied to Dowex 50W (hydrogen form, Sigma) cation-exchange columns (0.5×2 cm). Subsequently, the columns were washed with 1 ml of 0.1M HCl and 1 ml of water, and the fraction containing KYNA was eluted with 2 ml of water. The eluates were applied to a 3-μm C18 HPLC column (100×3.2 internal diameter, Bioanalytical Systems, West Lafayette, Ind., U.S.A.), and KYNA was isocratically eluted with a mobile phase containing 50 mM ammonium acetate and 5% methanol at a flow rate of 0.5 ml/min. Under these conditions, the retention time of KYNA was ≈7 min.
Data were recorded and calculated with a Hewlett-Packard 3390A integrator connected to a model 160 UV absorbance detector (Beckman Instruments, Berkeley, Calif., U.S.A.) set at 340 nm.

[1] = test system: Kynurenine Aminotransferase (KAT); assay: Determination of KAT activity inhibition in rat brain homogenate; assay type: biochemical; settings: 2 μM [3H]KYN, 2 h at 37° C., pH 8.0
Method: A) Determination of KAT activity inhibition in rat brain homogenate
KAT was measured as described in detail by Okuno et al. (Measurement of rat brain kynurenine amino-transferase at physiological kynurenine concentrations, J. Neurochem., 57, 533-540, 1991).
Briefly, animals were killed by decapitation and the brain tissue was homogenized (1:5 v/w in 5 mM Tris-acetate buffer, pH 8.0, containing 10 mM 2-mercaptoethanol and 50 μM pyridoxal 5'-phosphate) and incubated for 2 h at 37° C. in the presence of 2 μM [^3 H]KYN (30 nCi), 1 mM 2-oxoglutarate and 70 μM pyridoxal 5'-phosphate in 150 mM Tris-acetate buffer, pH 8.0. The reaction was terminated by the addition of trichloroacetic acid.
Newly synthesized [^3 H]KYNA was separated from [^3 H]KYN on a Dowex 50W cation-exchange column and quantitated by liquid scintillation spectrometry. Blanks were obtained by using tissue which had been heat-deactivated for 10 minutes in a boiling water bath.

KAT = biological target: T1, KAT (Rattus norvegicus, UniProt Q08415); assay: Kinetic analysis of KAT inhibitors using a partially purified enzyme preparation; assay type: biochemical; settings: KYN 2 μM to 2 mM; double reciprocal plots; pyruvate 1 mM; pH 8.0, 37° C.
T1 construct: a preparation of partially purified enzyme; from tissue; the cited method purifies from rat kidney and brain (own knowledge)
T1 sequence (Q08415 1-423): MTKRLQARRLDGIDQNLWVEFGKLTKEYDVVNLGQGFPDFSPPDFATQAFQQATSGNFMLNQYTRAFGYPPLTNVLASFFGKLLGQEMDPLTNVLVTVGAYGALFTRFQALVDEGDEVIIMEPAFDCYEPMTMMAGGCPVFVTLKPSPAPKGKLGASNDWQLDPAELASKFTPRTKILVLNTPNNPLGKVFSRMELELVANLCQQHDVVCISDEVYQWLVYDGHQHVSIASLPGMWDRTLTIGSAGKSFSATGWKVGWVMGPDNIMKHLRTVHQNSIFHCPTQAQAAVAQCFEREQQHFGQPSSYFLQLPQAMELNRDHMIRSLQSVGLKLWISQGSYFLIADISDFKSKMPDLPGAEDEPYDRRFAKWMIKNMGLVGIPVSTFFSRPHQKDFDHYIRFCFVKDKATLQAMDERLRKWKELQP
Method: C) Kinetic analysis of KAT inhibitors using a partially Purified enzyme Preparation (Brain Research, 534, 37-44 (1990)
The reaction mixture contained [^3 H]KYN (30 nCi), diluted with unlabelled KYN to yield a final concentration of 2 μM, 1 mM pyruvate, 70 μM pyridoxal 5'-phosphate, 150 mM Tris-acetate buffer, pH 8.0, and a preparation of partially purified enzyme in a total volume of 0.1 ml. Test compounds were included in the incubation mixture as needed. The reaction was started by the addition of pyruvate. After incubation for 2 h at 37° C., the reaction was terminated by the addition of 14 μl of 50% (w/w) trichloroacetic acid. Subsequently, 1 ml of 0.1M HCl was added and denaturated protein was removed by a 4-min centrifugation in a Beckman 52B microfuge. 1 ml of the resulting supernatant was applied to a Dowex 50W column (0.5×1.0 cm; H^+ form) and washed with 1 ml of 0.1M HCl, followed by 1 ml of distilled water. [^3 H]KYNA was eluted with 2 ml of distilled water and quantitated by liquid scintillation spectrometry. Enzyme measurements were performed in triplicate samples. […]
Kinetic experiments were performed using the standard KAT assay described above by varying the concentration of KYN between 2 μM and 2 mM in the absence or presence of set concentrations of test compounds. Double reciprocal plots were constructed and lines of best fit were determined by linear regression analysis.

[2] = test system: glycine modulatory site of the N-methyl-D-aspartate (NMDA) receptor complex; settings: J. Neurochem., 52, 1319-1328, 1989; in words; cited from earlier work

SMILES | inhibition at 100 µM (KYNA production) | inhibition at 1000 µM (KYNA production) | KYNA production % of inhibition ([1]; 100 μM) | KYNA production % of inhibition ([1]; 1000 μM) | Ki (KAT) | inhibition at 300 µM (KYNA production; at 300 μM (footnote *)) | affinity to the glycine modulatory site of the NMDA receptor complex [2] | Km (KAT)
Nc1ccc(Cl)cc1C(=O)CC(N)C(=O)O (centres unmarked) [FCE 27813, 2-amino-4-(2-amino-5-chlorophenyl)-4-oxo-butyric acid] | 63% | 84% | 45% | 81% | 88 µM | – | – | –
Cc1ccc(N)c(C(=O)CC(N)C(=O)O)c1 (centres unmarked) [FCE 27946, 2-amino-4-(2-amino-5-methylphenyl)-4-oxo-butyric acid] | – | 64% | 13% | 51% | – | 50% | – | –
Nc1ccc(F)cc1C(=O)CC(N)C(=O)O (centres unmarked) [FCE 27949, 2-amino-4-(2-amino-5-fluorophenyl)-4-oxo-butyric acid] | 48% | 70% | 30% | 74% | – | – | – | –
CCc1ccc(N)c(C(=O)CC(N)C(=O)O)c1 (centres unmarked) [FCE 28026, 2-amino-4-(2-amino-5-ethylphenyl)-4-oxo-butyric acid] | 8% | 49% | 30% | 78% | – | – | – | –
CCCc1ccc(N)c(C(=O)CC(N)C(=O)O)c1 (centres unmarked) [FCE 28244, 2-amino-4-(2-amino-5-n-propylphenyl)-4-oxo-butyric acid] | 27% | 70% | 50% | 72% | – | – | – | –
Nc1ccc(C2CCCCC2)cc1C(=O)CC(N)C(=O)O (centres unmarked) [FCE 28263, 2-amino-4-(2-amino-5-cyclohexylphenyl)-4-oxo-butyric acid] | 28% | 45% | 47% | 77% | – | – | – | –
Nc1ccc(Br)cc1C(=O)CC(N)C(=O)O (centres unmarked) [FCE 28264, 2-amino-4-(2-amino-5-bromophenyl)-4-oxo-butyric acid] | 58% | 72% | 52% | 83% | – | – | – | –
CC(C)c1ccc(N)c(C(=O)CC(N)C(=O)O)c1 (centres unmarked) [FCE 28441, 2-amino-4-(2-amino-5-isopropylphenyl)-4-oxo-butyric acid] | 5% | 54% | 45% | 72% | – | – | – | –
Nc1ccc(Cl)cc1C(=O)C[C@@H](N)C(=O)O [FCE 28442, (R)-(+)-2-amino-4-(2-amino-5-chlorophenyl)-4-oxo-butyric acid] | – | 45% | – | 31% | – | – | – | –
Nc1ccc(Cl)cc1C(=O)C[C@H](N)C(=O)O [FCE 28443, (S)-(-)-2-amino-4-(2-amino-5-chlorophenyl)-4-oxo-butyric acid] | 67% | 91% | 61% | 89% | – | – | – | –
O=C(O)c1cc(=O)c2ccccc2[nH]1 [KYNA, Kynurenic Acid] | – | – | – | – | – | – | particularly high affinity | –
Nc1ccccc1C(=O)C[C@H](N)C(=O)O [L-kynurenine, reference compound] | – | – | – | – | – | – | – | 369 µM
